Here are results for one molecule from US20090155767A1, “Methods for a predictive diagnostic test for tamoxifen” (priority 2007, published 2009).

Assay [1] has as its system stage II invasive breast cancer (ER+ subset). The following applies: Cox univariate, tamoxifen vs control, cited from earlier work.
Assay [2] has the same test system. Put plainly: Randomized clinical trial of two years of adjuvant tamoxifen vs no treatment (Swedish SBII:2a); recurrence-free survival by biomarker subgroup. The assay is classed as in vivo, human. The following applies: for HR RFS: ER+. An excerpt: From 1986 to 1991, 564 patients enrolled in a a randomized clinical trial for adjuvant tamoxifen treatment in early breast cancer (Swedish SBII:2a)(15). Criteria for enrollment included premenopausal status or age less than 50 years, with stage II invasive breast cancer. Patients were randomized to receive two years of tamoxifen (n=276) or no treatment (control, n=288), and were followed for disease-free and overall survival, with a median follow-up of 13.9 years. A detailed description of the trial and results has previously been published (15,16).
For analysis of tamoxifen response, only the ER+ subset of patients were included (16). By IHC, a cut-off value of at least 10% nuclear immunoreactivity was used to classify patients as ER-positive.
The statistical calculations were performed using SPSS Version 13.0 (SPSS, Chicago, Ill.) and Stata Version 9.2 (StataCorp, College Station, Tex.). Pearson's correlation coefficient (R) was used to assess the correlation between log AQUA-EGFR scores from redundant tumor cores and Spearman's Rho to assess the correlation between AQUA-EGFR score and other variables. Recurrence-free survival (RFS) was chosen as endpoint in the present study. RFS included breast cancer specific death, distant, regional and local recurrences and all analyses were performed with the intention to treat rule. The AQUA-EGFR score was dichotomized at the median in order to avoid bias problems associated with cut-off optimization. Kaplan-Meier plots were used to illustrate the survival in high and low EGFR, respectively, and the log rank test to test for equality of survival curves. Hazard ratios were estimated using Cox regression. Proportional hazards assumptions were checked using Schoenfeld's test. The null hypothesis of equal treatment effects in high and low EGFR were evaluated using a Cox model with a term for the interaction between EGFR class and treatment. Cox models with continuous AQUA-EGFR score were also fitted. The original score and a logarithmic transformation of the score were evaluated. […] All p-values corresponded to two-sided tests and values less than 0.05 were considered significant.

Read-outs that look alike come from different tables or passages of the source.

For `CC/C(=C(\c1ccccc1)c1ccc(OCCN(C)C)cc1)c1ccccc1` [Tamoxifen], the “HR RFS” value is 0.64 in assay [1] (HER2 IHC 0-2+ (Herceptest), N = 252); 0.67 in assay [1] (HER2 IHC 3+ (Herceptest), N = 23); 0.571 in assay [2] (Cox multivariate, Tamoxifen Treatment (+/-), n = 324 (available data in 186 patients)); 1.14 in assay [2] (Cox univariate, tamoxifen vs control, EGFR-AQUA High, n = 73); 0.43 in assay [2] (Cox univariate, tamoxifen vs control, EGFR-AQUA Low, n = 113); 0.73 in assay [2] (Cox univariate, tamoxifen vs control, EGFR-IHC High, n = 27). Besides, the “HR RFS” value in assay [2] (Cox univariate, tamoxifen vs control, EGFR-IHC Low, n = 232) was found to be 0.57; in assay [2] (Cox univariate, tamoxifen vs control, HER2-AQUA High, N = 10) it was 0.28; in assay [2] (Cox univariate, tamoxifen vs control, HER2-AQUA Low, N = 231), 0.64. The “Effect of two years of adjuvant tamoxifen on RFS (log rank, Kaplan-Meier)” value in assay [2] (ER+ patients with low EGFR expression (AQUA), n=113, p=0.01) is given as “significant effect”; in assay [2] (ER+ patients, EGFR high group (AQUA), n=73, p=0.69), “no treatment effect”. The “10-year RFS” value in assay [2] (ER+ tamoxifen treated patients with high EGFR expression (AQUA)) is 52%; in assay [2] (ER+ tamoxifen treated patients, EGFR low group (AQUA)), 78%. Also, in assay [2] (ER+ tamoxifen-treated patients, high vs low EGFR (AQUA), Log-Rank p=0.0411), the “Association of high EGFR expression with outcome in tamoxifen-treated patients” value was “shorter time to recurrence and breast cancer death”.
